Drawing on US20220411414A1, “INHIBITORS FOR THE B-CATENIN/B-CELL LYMPHOMA 9 (BCL9) PROTEIN-PROTEIN INTERACTION” (H. LEE MOFFITT CANCER CENTER AND RESEARCH INSTITUTE, INC., priority 2018, published 2022), this text covers IC50 for 1 compound.

This assay concerns TOPFlash (three wild-type Tcf binding sites) luciferase reporter. In words: Wnt-responsive TOPFlash luciferase reporter assay, SW480. It counts as cell-based. The settings on record: Homo sapiens, 24 h treatment, read-out: TOPFlash IC50 ± SD SW480. The procedure:
The TOPFlash luciferase reporter assay (in which the luciferase reporter has three wild-type Tcf4 binding sites) was performed with 4 and 5. Cell transfection and luciferase assay. FuGENE6 (E269A, Promega) 96 well plate format was used for the transfection of HEK293 and SW480 cells according to the manufacturer's instruction. HEK293 cells were co-transfected with 45 ng of TOPFlash or FOPFlash reporter gene, 135 ng pcDNA3.1-β-catenin, and 20 ng of pCMV-RL normalization reporter gene. SW480 cells were co-transfected with 60 ng of the TOPFlash or FOPFlash reporter gene and 40 ng of pCMV-RL normalization reporter. Cells were cultured in DMEM and 10% FBS at 37° C. for 24 h, and different concentrations of inhibitors or DMSO was added. After 24 h, the luciferase reporter activity was measured using the Dual-Glo system (E2940, Promega). Normalized luciferase activity in response to the treatment with 4 and 5 was compared with that obtained from the cells treated with DMSO. Experiments were performed in triplicate.
For orientation: A reporter such as luciferase makes a cellular process visible.

In the case of `Cl.Cl.O=C(Nc1ccc(O[C@@H]2CCNC2)c(-c2cccc(-c3nn[nH]n3)c2)c1)c1ccc(O[C@H]2CCNC2)c(-c2ccc(F)c(F)c2)c1` [Compound 4, 3′,4′-difluoro-6-(((S)-pyrrolidin-3-yl)oxy)-N-(6-(((R)-pyrrolidin-3-yl)oxy)-3′-(2H-tetrazol-5-yl)-[1,1′-biphenyl]-3-yl)-[1,1′-biphenyl]-3-carboxamide dihydrochloride], the IC50 (commonly the concentration needed to halve the response being measured) was determined as 25 ± 2.7 µM.
